This note sets out measurements from PMC9144581, “In Vitro Anti-Proliferative, and Kinase Inhibitory Activity of Phenanthroindolizidine Alkaloids Isolated from Tylophora indica” (Plants, 2022).

One assay concerns MCF-7. Nature of the assay: MTT anti-proliferative assay, MCF-7. The settings on record: read-out: IC50 ± SD, MCF-7. Format: cell-based. On the procedure:
(§1) The cells proliferations were determined by MTT [3-(4,5-dimethylthiazol-2-yl)-2,5-diphenyltetrazolium bromide] assays, wherein MTT color intensity was directly associated with the number of healthy, living cells. The three cancer cell lines, i.e., MCF-7, Michigan Cancer Foundation-7; HepG2, Human hepatocellular carcinoma; and HCT-116, Human colorectal carcinoma, were obtained from the Laboratory of Parasitology, Faculty of Medicine, Universitas Gadjah Mada Indonesia. The cells were cultured in DMEM (Dulbecco’s Modified Eagle’s Medium) (Gibco, Waltham, MA, USA) with 10% Fetal Bovine Serum (FBS, Gibco), 2% Sodium bicarbonate (NaHCO3, Gibco), and HEPES (4-2(2-hydroxyethyl)-1-piperazine ethane sulfonic acid) (Invitrogen). The cell lines were maintained at 37 °C in a humidified incubator containing 5% CO2. The IC50 values as µM were determined after 48-h of compounds incubations with the cells. The assays were determined as mean ± SD: Standard Deviation (n = 3) (p < 0.005, compared with the standard value).

In another assay the test system is HepG2. Nature of the assay: MTT anti-proliferative assay, HepG2. Type of assay: cell-based, Human. To be noted: read-out: IC50 ± SD, HepG2. As to the method: as §1
The subject of a further assay is HCT-116. Nature of the assay: MTT anti-proliferative assay, HCT-116. Type of assay: cell-based, Human. To be noted: read-out: IC50 ± SD, HCT-116. As to the method: as §1
A further assay concerns the target T1, Aurora-A (Homo sapiens, UniProt O14965).
T1 construct: purchased Sigma-Aldrich
T1 sequence (O14965 1-403): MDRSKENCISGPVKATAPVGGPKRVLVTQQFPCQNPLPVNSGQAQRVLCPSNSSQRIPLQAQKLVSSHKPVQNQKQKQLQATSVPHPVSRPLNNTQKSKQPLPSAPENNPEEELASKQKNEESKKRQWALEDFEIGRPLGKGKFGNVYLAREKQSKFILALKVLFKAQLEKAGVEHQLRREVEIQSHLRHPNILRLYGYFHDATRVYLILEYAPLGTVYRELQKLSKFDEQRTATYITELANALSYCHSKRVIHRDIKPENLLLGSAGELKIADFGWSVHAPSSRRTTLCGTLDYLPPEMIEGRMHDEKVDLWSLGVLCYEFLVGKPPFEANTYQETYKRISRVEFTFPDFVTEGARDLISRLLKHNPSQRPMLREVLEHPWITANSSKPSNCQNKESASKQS
Nature of the assay: Radiometric protein kinase assay, Aurora-A. Type of assay: biochemical. On the procedure:
(§2) The radiometric protein kinase assays (RPKA) were used to investigate the kinase inhibitory effects of the isolated compounds. The method was dependent on the incorporation of radioactive ^33P isotope with ATP, and the percentage of phosphorylation was determined using the microplate-scintillation counter (Microbeta, Wallac, Finland) method. The half-maximal inhibitory concentration (IC50) values of compounds were measured by a microplate-scintillation counter. The control mixture (without peptide substrate) measures endogenous phosphorylation of proteins in the Protein Kinase Sample by-^33P-ATP. The purified protein kinases were used as positive controls for the assay (Sigma-Aldrich, St. Louis, MO, USA).

The next assay addresses T2, Aurora-B (Homo sapiens, UniProt Q96GD4).
T2 construct: purchased Sigma-Aldrich
Nature of the assay: Radiometric protein kinase assay, Aurora-B. Type of assay: biochemical. On the procedure:
as §2

[1] abbreviates: Homo sapiens, MCF7, MTT assay, 48-h incubation, n = 3.
The mark [2] stands for this setting: Homo sapiens, HepG2, MTT assay, 48-h incubation, n = 3.
[3] abbreviates: Homo sapiens, HCT-116, MTT assay, 48-h incubation, n = 3.
Where [4] appears, read: radiometric kinase assay, 33P-ATP, average of three independent experiments, read-out: IC50 Values, Aurora-A.
[5] abbreviates: radiometric kinase assay, 33P-ATP, average of three independent experiments, read-out: IC50 Values, Aurora-B.
Where [6] appears, read: MTT assay, 48-h incubation, n = 3.

Read-outs that look alike come from different tables or passages of the source.

T2 sequence (Q96GD4 whole entry): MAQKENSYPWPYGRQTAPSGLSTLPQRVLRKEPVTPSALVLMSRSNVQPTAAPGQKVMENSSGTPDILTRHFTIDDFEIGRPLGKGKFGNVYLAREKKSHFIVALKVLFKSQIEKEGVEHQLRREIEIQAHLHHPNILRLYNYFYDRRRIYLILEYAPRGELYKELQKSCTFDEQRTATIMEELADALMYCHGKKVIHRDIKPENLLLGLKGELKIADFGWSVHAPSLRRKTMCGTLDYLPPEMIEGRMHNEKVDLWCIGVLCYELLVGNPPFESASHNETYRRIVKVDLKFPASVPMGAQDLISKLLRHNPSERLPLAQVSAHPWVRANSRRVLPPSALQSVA

Turning to `COc1ccc(C2=C(c3ccc(OC)c(OC)c3)CN3CCCC3C2)cc1OC` (centres unmarked) [Compound 7, 6,7-Bis (3,4-dimethoxyphenyl)-1,2,3,5,8,8a-hexahydroindolizine], the concentration for half-maximal inhibition (IC50) with MCF-7 (Homo sapiens, MCF7, 48 h) was > 200 µM; with HepG2 (Homo sapiens, HepG2, 48 h), > 200 µM; with HCT-116 (Homo sapiens, HCT-116, 48 h), > 200 µM; against Aurora-A, > 100 µM; against Aurora-B it was > 100 µM.
On to `COC(=O)[C@]1(O)C[C@@H](O)[C@@H](O)[C@H](OC(=O)/C=C/c2ccc(O)c(O)c2)C1` [Compound 9, chlorogenic acid methyl ester], for which the IC50 in the assay with MCF-7 (setting [1]), in the assay on HepG2 (setting [2]) and in the assay with HCT-116 (setting [3]) was > 200 µM in each case.
Regarding `O=C(/C=C/c1ccc(O)c(O)c1)O[C@@H]1C[C@](O)(C(=O)O)C[C@@H](O)[C@H]1O` [Compound 8, chlorogenic acid], the IC50 in the assay on MCF-7 (setting [1]) was 134 µM; in the assay with HepG2 (setting [2]), 170 µM; with HCT-116 (setting [3]), > 200 µM.
With `COc1ccc2c3c(c4cc(OC)c(O)cc4c2c1)C[N+]1([O-])CCCC1C3O` (stereo not drawn) [Compound 6, 14α-hydroxy-6-demethyltylophorinine N-Oxide], the IC50 in the assay with MCF-7 (setting [1]) was found to be 12.2 ± 1.81 µM; in the assay with HepG2 (setting [2]), 15.3 ± 2.04 µM; with HCT-116 (setting [3]), 65.6 ± 2.24 µM; on Aurora-A (setting [4]), 2.6 ± 0.86 µM; at Aurora-B (setting [5]) it was 6.5 ± 0.76 µM.
`COc1cc2c3c(c4cc(OC)c(OC)cc4c2cc1OC)CN1CCC[C@@H]1C3` [Compound 1, (-)-Tylophorine]: the half-maximal inhibitory concentration (IC50) with MCF-7 (Homo sapiens, MCF7, 48 h) came to 126 µM; in the assay with HepG2 (Homo sapiens, HepG2, 48 h), 40.1 ± 2.94 µM; in the assay with HCT-116 (Homo sapiens, HCT-116, 48 h), 142 ± 3.06 µM; against Aurora-A, 21.4 ± 1.24 µM; on Aurora-B it was 18.3 ± 1.32 µM.
For `COc1ccc2c3c(c4cc(OC)c(O)cc4c2c1)CN1CCC[C@H]1[C@H]3O` [Compound 5, 14α-hydroxy-6-demethyl Tylophorinine], the IC50 with MCF-7 (setting [1]) is 6.45 ± 2.06 µM; in the assay with HepG2 (setting [2]), 4.77 ± 2.11 µM; in the assay with HCT-116 (setting [3]) it was 20.1 ± 1.94 µM; on Aurora-A (setting [4]) it was 0.6 ± 0.72 µM; at Aurora-B (setting [5]) it was 1.3 ± 0.58 µM.
For `COc1cc2c3c(c4cc(OC)c(OC)cc4c2cc1OC)[C@@H](O)[C@H]1CCCN1C3` [Compound 2, 2,3,6,7-tetramethoxy-14β-hydroxy-phenanthroindolizidine] the same measures were 50.7 ± 2.86 µM, 35.3 ± 2.97 µM, 75.5 µM, 16.2 ± 1.43 µM and 10.2 ± 1.21 µM.
With `COc1ccc2c3c(c4cc(OC)c(OC)cc4c2c1)C[N+]1([O-])CCC[C@H]1[C@H]3O` (stereo partly drawn) [Compound 4, 3,6,7-trimethoxy-14α-hydroxy-phenanthroindolizidine-N-Oxide], the IC50 was > 200 µM with MCF-7 (setting [1]); 197 µM in the assay with HepG2 (setting [2]); > 200 µM in the assay on HCT-116 (setting [3]); > 100 µM on Aurora-A (setting [4]); > 100 µM on Aurora-B (setting [5]).
As for `N.N.[Cl][Pt][Cl]` [Cisplatin, reference compound], the IC50 with MCF-7 (setting [6]) was determined as 5.7 ± 0.76 µM; with HepG2 (setting [6]), 12.9 ± 0.91 µM; in the assay on HCT-116 (setting [6]) it was 14.4 ± 1.69 µM.
As to `COc1ccc2c3c(c4cc(OC)c(OC)cc4c2c1)CN1CCC[C@H]1[C@@H]3O` [Compound 3, 3,6,7-trimethoxy-14α-hydroxy-phenanthroindolizidine], the IC50 in the assay with MCF-7 (Homo sapiens, MCF7, 48 h) turned out to be 32 ± 2.64 µM; in the assay on HepG2 (Homo sapiens, HepG2, 48 h) it was 23.8 ± 3.02 µM; in the assay on HCT-116 (Homo sapiens, HCT-116, 48 h), 87 ± 3.08 µM; at Aurora-A, 4.1 ± 1.08 µM; against Aurora-B it was 3.6 ± 0.93 µM.
